Experimental data published in patent publication US8747362B2, “Microneedle device” (Hisamitsu Pharmaceutical Co., Inc, priority 2009, dated 2014).

How the values were obtained:
[1] = Viscosity measurement of carrier (coating agent) by micron-sample viscometer; type: physicochemical; details: 25° C., average of 10
Experimental: • Material: Polylactic acid having a weight average molecular weight of about 80,000, Height: 500 μm, Density: 625 needles/cm^2, Formulation area of a microneedle base: 1 cm^2/patch (b) Metal Mask Plate • Pitch: 400 μm, Mask thickness: 100 μm, Opening: square shape (one side: 250 μm) (c) Environmental Setting: Room Temperature (25° C.)
The concentration of octreotide acetate and the concentration of propylene glycol or glycerin were set as shown in Table 3 and Table 4, and the materials were set in a rotating/revolving mixer to prepare a carrier (a coating agent). The viscosity of the obtained carrier (the coating agent) was measured 10 times by use of a micron-sample viscometer (RHEOSENSE INC., Micron Sample-Viscometer/Rheometer-on-a-chip VROCTM); calculated average values are shown in. Table 3 and Table 4.

[2] = Content (amount deposited) of octreotide acetate per patch of microneedle device, BCA method; type: physicochemical; details: average of 10
Experimental: • Material: Polylactic acid having a weight average molecular weight of about 80,000, Height: 500 μm, Density: 625 needles/cm^2, Formulation area of a microneedle base: 1 cm^2/patch (b) Metal Mask Plate • Pitch: 400 μm, Mask thickness: 100 μm, Opening: square shape (one side: 250 μm) (c) Environmental Setting: Room Temperature (25° C.) The concentration of octreotide acetate and the concentration of propylene glycol or glycerin were set as shown in Table 3 and Table 4, and the materials were set in a rotating/revolving mixer to prepare a carrier (a coating agent). Application of the carrier (the coating agent) to microneedles was performed by a predetermined method. More specifically, the carrier the coating agent) was swept by a spatula to fill openings of a metal mask with the carrier. Microneedles (needles) were inserted in the openings thus filled, and then taken out therefrom, and subsequently, the carrier (the coating agent) thus applied on the microneedles was extracted by purified water. By a BCA method (an octreotide standard), the content (an amount deposited) of octreotide acetate per one patch (sheet) of a microneedle device was measured 10 times; calculated average values are shown in Table 3 and Table 4.

[3] = carrier: octreotide acetate 20 / glycerin 80 % by weight
[4] = carrier: octreotide acetate 20 / propylene glycol 80 % by weight
[5] = carrier: octreotide acetate 30 / glycerin 70 % by weight
[6] = carrier: octreotide acetate 35 / glycerin 65 % by weight
[7] = carrier: octreotide acetate 40 / glycerin 60 % by weight
[8] = carrier: octreotide acetate 40 / propylene glycol 60 % by weight
[9] = carrier: octreotide acetate 50 / glycerin 50 % by weight
[10] = carrier: octreotide acetate 50 / propylene glycol 50 % by weight
[11] = carrier: octreotide acetate 60 / glycerin 40 % by weight
[12] = carrier: octreotide acetate 60 / propylene glycol 40 % by weight
[13] = carrier: octreotide acetate 70 / propylene glycol 30 % by weight
[14] = carrier: octreotide acetate 80 / propylene glycol 20 % by weight

## C[C@@H](O)[C@@H]1NC(=O)[C@H](CCCCN)NC(=O)[C@@H](Cc2c[nH]c3ccccc23)NC(=O)[C@H](Cc2ccccc2)NC(=O)[C@@H](NC(=O)[C@H](N)Cc2ccccc2)CSSC[C@@H](C(=O)N[C@H](CO)[C@@H](C)O)NC1=O [Octreotide acetate, octreotide acetate]
[1]; [3]
  Viscosity Avg.: 2900 cps
[1]; [4]
  Viscosity Avg.: 200 cps
[1]; [5]
  Viscosity Avg.: 9000 cps
[1]; [6]
  Viscosity Avg.: 12000 cps
[1]; [7]
  Viscosity Avg.: 15000 cps
[1]; [8]
  Viscosity Avg.: 1600 cps
[1]; [9]
  Viscosity Avg.: 21000 cps
[1]; [10]
  Viscosity Avg.: 5400 cps
[1]; [11]
  Viscosity Avg.: 27000 cps
[1]; [12]
  Viscosity Avg.: 15000 cps
[1]; [13]
  Viscosity Avg.: 45000 cps
[1]; [14]
  Viscosity Avg.: 133000 cps
[2]; [3]
  Content Avg.: 6 μg/patch
[2]; [4]
  Content Avg.: 4 μg/patch
[2]; [5]
  Content Avg.: 39 μg/patch
[2]; [6]
  Content Avg.: 53 μg/patch
[2]; [7]
  Content Avg.: 89 μg/patch
[2]; [8]
  Content Avg.: 36 μg/patch
[2]; [9]
  Content Avg.: 169 μg/patch
[2]; [10]
  Content Avg.: 121 μg/patch
[2]; [11]
  Content Avg.: 149 μg/patch
[2]; [12]
  Content Avg.: 243 μg/patch
[2]; [13]
  Content Avg.: 237 μg/patch
[2]; [14]
  Content Avg.: 97 μg/patch
